The results in this text go back to ChEMBL document CHEMBL1124077, “Photoaffinity labeling adenosine A1 receptors with an antagonist 125I-labeled aryl azide derivative of 8-phenylxanthine” (J Med Chem, 1988).

Experiment [1] concerns the target T1, Adenosine receptor A1 (Rattus norvegicus, UniProt P25099).
T1 sequence (P25099 whole entry): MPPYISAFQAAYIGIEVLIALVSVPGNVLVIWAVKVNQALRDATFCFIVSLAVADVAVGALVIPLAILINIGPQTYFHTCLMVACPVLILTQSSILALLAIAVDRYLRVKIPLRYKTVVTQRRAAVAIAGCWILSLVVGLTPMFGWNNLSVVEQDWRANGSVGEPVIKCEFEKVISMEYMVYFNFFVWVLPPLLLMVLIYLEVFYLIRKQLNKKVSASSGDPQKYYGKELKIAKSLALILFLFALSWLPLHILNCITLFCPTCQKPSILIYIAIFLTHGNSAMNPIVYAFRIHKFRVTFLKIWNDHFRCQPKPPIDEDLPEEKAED
As to the kind of experiment: Binding affinity towards adenosine A1 receptor in rat brain membrane(KD). It counts as tissue-based.

Experiment [2] deals with T2, Adenosine receptor A1 (Rattus norvegicus) (UniProt P25099).
T2 sequence (whole entry): T1 sequence (P25099 whole entry)
As to the kind of experiment: Bmax value against A1 receptor.

In experiment [3] the target is T1, Adenosine receptor A1. As to the kind of experiment: Inhibition of photolabeling of 34 kDa polypeptide in adenosine A1 receptor.

`CCCn1c(=O)c2nc(-c3ccc(OCC(=O)O)cc3)[nH]c2n(CCc2ccc(N)c(I)c2)c1=O` had a Kd in experiment [1] of 0.8 nM. In experiment [2], this compound showed a Bmax of 485 fmol/mg. Take `CCCn1c(=O)c2nc(-c3ccc(OCC(=O)O)cc3)[nH]c2n(CCc2ccc(N)cc2)c1=O`: the IC50 in experiment [3] amounted to 16 nM. `CCCn1c(=O)c2nc(-c3ccc(OCC(=O)O)cc3)[nH]c2n(Cc2ccc(N)c(I)c2)c1=O` gave a Kd in experiment [1] of 0.8 nM. Besides, the Bmax in experiment [2] is 485 fmol/mg. `CCCn1c(=O)c2nc(-c3ccc(OCC(=O)O)cc3)[nH]c2n(CCc2ccc(N=[N+]=[N-])c(I)c2)c1=O` yielded a Kd in experiment [1] of 1.2 nM.
